Where two headings read alike, the source gives them in different places. Marks after values point to notes of the source that are not given here.
Legend:
[1] = test system: carrageenin induced paw edema in rats; experiment: Carrageenin induced paw edema in rats; assay type: in vivo, Wistar rats; conditions: for Volume of edema: 3 h after carrageenin, mean ± SE
Protocol: To right hind paws of male 7 week-old Wistar rats (purchased from Japan SLC, Inc.) 0.1 ml of 1% λ-carrageenin was subcutaneously injected to cause paw edema reaction (n=5). Compound A at doses of 1 to 25 mg/kg and indomethacin at a dose of 5 mg/kg were orally administered 15 and 60 minutes before administration of carrageenin, respectively.
Three hours after administration of carrageenin, when the paw edema reaction reached maximum, the effectiveness was evaluated from the volumes of the right hind paw edema.

IBD = conditions: ulcerative colitis and Crohn's disease, literature; cited from earlier work
[2] = test system: DSS induced rat IBD chronic model; experiment: DSS induced rat IBD chronic model (therapeutic effect); assay type: in vivo, Wistar rats; conditions: for Side effects such as inhibition of weight gain: rat, in vivo
Protocol: Colitis was induced by freely allowing male 7 week-old Wistar rats (purchased from Japan SLC, Inc.) to ingest 3% DSS solution for 3 days, and subsequently chronic IBD was induced by freely allowing to ingest 1% DSS solution starting from the 4th day of the test.
Compound A (2, 20 mg/kg/day), 5-aminosalicylic acid as a control (5-ASA: 200 mg/kg/day) and cyclosporine A (Cy A: 25 mg/kg/day) were administered to the animals starting from the 4th day of the test until the day of dissection (n=8 to 20).
The property of feces in individual animal was observed until the day before dissection, and the soft feces score and the blood feces score were determined according to the same basis as shown in Test Example 3 to obtain the sum of the soft feces score and blood feces score as the feces score.
Also, 1% Evans blue physiological saline was intravenously injected in an amount of 1 ml per rat on the day of dissection, and the animal was euthanized 30 minutes after that for excising the large intestine. After immobilizing the large intestine in the length of 7 to 8 cm from anus with 4% formalin buffer for 20 minutes, the intestine was longitudinally opened from the mesenterium side for photographing the rectal portion and measuring the rectum weight. The state and extent of eroded rectal portion were scored according to the following basis for making a macro observation score.
Macro observation score (0-5)
[0: normal, • 1: erosion formation in narrow ranges, • 2: weak erosion formation, without bleeding, • 3: moderate erosion formation and weak bleeding in narrow ranges, • 4: strong erosion formation and bleeding in narrow ranges, • 5: strong erosion formation and bleeding in wide ranges]
A therapeutic effect of Compound B orally administered was examined in the same manner as in Test Example 4 except that Compound B (20 mg/kg/day) was used in place of Compound A (n=12).

DSS induced IBD model = experiment: 3% dextran sulfate sodium (DSS) induced acute rat IBD model (prophylactic effect); assay type: in vivo, Wistar rats; conditions: for inhibition at 10 mg/kg/day / inhibition at 1 mg/kg/day / inhibition at 100 mg/kg/day: Rattus norvegicus, po, read-out: Inhibition rate (%); for ulcer area: Table 2 (title: ulcer area reduction effect), twice a day; for ulcer area / Feces score: mean ± SE; for Feces score: Table 3 (effectiveness on feces score)
Source text: IBD was induced by freely allowing male 7 week-old Wistar rats (purchased from Japan SLC, Inc.) to ingest 3% DSS solution (n=8). In the period of 7 days after initiating DSS administration, soft feces and blood feces scores were observed according to the following basis, and the sum of the soft feces score and blood feces score was obtained as the feces score of the individual animal.
• Soft feces score (0 to 3) • [0: nothing abnormal detected (NAD), • 1: slightly soft, • 2: soft, • 3: diarrhea] • Blood feces score (0 to 3) • [0: nothing abnormal detected (NAD), • 1: blood in feces, • 2: bright-red blood adhered on feces, • 3: melena]
1% Evans blue physiological saline was intravenously injected in an amount of 1 ml per rat 8 days after DSS exposure, and the animal was euthanized 30 minutes after that for excising the large intestine. After immobilizing the large intestine in the length of 7 to 8 cm from anus with 4% formalin buffer for 20 minutes, the intestine was longitudinally opened from the mesenterium side for photographing the rectal portion. Ulcer area was calculated by image analysis.
Compound A (10 mg/kg/day), or. sulfasalazine (100 mg/kg/day) or prednisolone (1 mg/kg/day) as a control compound was made into suspension in an agate mortar, which was orally administered twice a day at a dose of 5 ml/kg to each rat starting from a day before administration of DSS to a day before dissection. In this connection, 1% hydroxypropylmethyl cellulose solution (HPMC) was used as a solvent, which was administered at a dose of 5 ml/kg to the solvent treated group.

in vivo = experiment: in vivo; design: species or system SD rats; conditions: both sexes, SD, rat, po
Protocol: To 6 week-old male and female SD rats (purchased from
Charles River Laboratories Japan, Inc.) a solvent (hydroxymethyl cellulose) or Compound A (100, 300, 1000 mg/kg/day) was administered orally and repeatedly for 26 consecutive weeks (n=15).

[3] = Test for converting Compound A into Compound B (oral 14C Compound A, Radio-HPLC); assay type: in vivo, Wistar rats; conditions: for Detection in plasma: 15 minutes after oral 14C labeled Compound A 1 mg/kg, fasting rats; for Detection in bile: bile collected for 8 hours after oral 14C labeled Compound A 1 mg/kg; for Detection in urine: urine collected for 24 hours after oral 14C labeled Compound A 1 mg/kg
Protocol: Male 8 week-old Wistar rats (purchased from Japan SLC, Inc.) under fasting conditions were orally administered with ^14C labeled Compound A at a dose of 1 mg/kg, and the amounts of Compound B in plasma, urine and bile were determined by Radio-HPLC.

[4] = cited from earlier work
TNBS induced IBD model [5] = experiment: Trinitrobenzene sulfonic acid (TNBS) induced rat IBD model (therapeutic effect); assay type: in vivo, SD rats
Protocol: 8 week-old male SD rats (purchased from Charles River
Laboratories Japan, Inc.) were intrarectally treated with TNBS to induce enteritis, and divided into groups 2 days after the treatment with TNBS to initiate the administration of the drugs. A solvent, Compound A (2, 20, 50 mg/kg/day), or prednisolone (6 mg/kg/day) was orally administered twice a day, and the rats were subjected to autopsy 8 days after administration for determining the macro observation score. The evaluation of the score was conducted by the method described in Table 4 according to the judgment method by JOHN L. WALLACE et al. (Gastroenterology 1989; 96: 29-36).
Furthermore, the large intestine was cut to a length of 10 cm for measuring the wet weight of intestine.

TNBS induced IBD model [6] = experiment: as above; assay type: in vivo, SD rats; conditions: 5 mg/kg × 2 oral, from 2 days after TNBS
splenocytes = experiment: Direct effect on the activation of T cells: cytokine production by ovalbumin-stimulated splenocytes (ELISA); assay type: cell-based, Balb/c mice; conditions: for Production of IFNγ / Production of IL-2 / Production of IL-5: culture for 24 hours
Protocol: 7 week-old male Balb/c mice (purchased from Japan SLC, Inc.) were sensitized with an aluminum hydroxide gel-ovalbumin suspension administered intraperitoneally or subcutaneously in both inguinal regions on the first and 14th days, and the spleen was excised on the 21st day for preparing a splenocyte suspension. After removal of erythrocytes, Compound B (10 μM) and ovalbumin were added to splenocytes suspended in a culture medium, and the mixture was cultured at 37° C. under a condition of 5% CO2.
IL-4 in the supernatant after culture for 6 hours, and IL-2, IL-5 and IFNγ in the supernatant after culture for 24 hours were quantitatively determined by ELISA (ELISA kit manufactured by ENDOGEN).

[7] = 20 mg/kg/day from 4th day, vs solvent treated group

With COc1ccc2c(c1)c(CC(=O)O)c(C)n2C(=O)c1ccc(Cl)cc1 [Indomethacin, indomethacin, reference compound] the “Inhibitory effect on paw edema” value ([1]; 5 mg/kg oral) was “significant (p<0.01) inhibitory effect” and the Volume of edema ([1]; 5 mg/kg oral 60 min before carrageenin) was 0.48 ± 0.04 mL.
In the case of O=C([O-])c1cc(=O)c2c(OCC(O)COc3cccc4oc(C(=O)[O-])cc(=O)c34)cccc2o1.[Na+].[Na+] [disodium cromoglycate], the “Effectiveness against IBD” value (IBD) is given as “ineffective against IBD”.
For Nc1ccc(O)c(C(=O)O)c1 [Compound 5-ASA, 5-aminosalicylic acid, reference compound], the “Inhibitory effects in any evaluation items” value ([2]; 200 mg/kg/day from 4th day) was “significant inhibitory effects were not recognized”.
In the case of COc1cc2[nH]c(=O)c3nn(C(OC(=O)OC(C)C)C(C)C)nc3c(=O)c2cc1OC (centres unmarked) [Compound A, 2-(1-Isopropoxycarbonyloxy-2-methylpropyl)-7,8-dimethoxy-4(5H),10-dioxo-2H-1,2,3-triazolo[4,5-c][1]benzoazepine], the Side effects (DSS induced IBD model; 10 mg/kg/day oral) is reported as “without any side effects”, the inhibition at 10 mg/kg/day (DSS induced IBD model; Table 2 (ulcer area reduction effect), 10 mg/kg/day oral) is reported as 36.4% and the inhibition at 10 mg/kg/day (DSS induced IBD model; Table 3 (feces score), 10 mg/kg/day oral) is reported as 40.7%. For the same compound, the ulcer area (DSS induced IBD model; 10 mg/kg/day oral) was 291.3 ± 37.0, the Feces score (DSS induced IBD model; 10 mg/kg/day oral) was 2.00 ± 0.53 and the NOAEL at 26 weeks (in vivo) was no less than 1000 mg/kg/day. For the same compound, the Detection in plasma [3] was “not detected”, the Detection in bile [3] was “not detected” and the “Metabolism of Compound A into Compound B on absorption” value ([3]; oral 1 mg/kg, rats) was “nearly all of Compound A was metabolized into Compound B”. The Detection in urine [3] was “not detected”, the Volume of edema ([1]; 1 mg/kg oral 15 min before carrageenin) was 0.87 ± 0.04 mL and the Volume of edema ([1]; 5 mg/kg oral 15 min before carrageenin) was 0.89 ± 0.04 mL. The Volume of edema ([1]; 25 mg/kg oral 15 min before carrageenin) was 0.67 ± 0.05 mL, the “Inhibitory effect on paw edema” value ([1]; any doses (1 to 25 mg/kg oral)) was “no inhibitory effect” and the “Absorbability upon oral administration relative to Compound B” value [4] was “seven times as large as that of Compound B”. The Colonic ulceration score (TNBS induced IBD model [5]; 1 mg/kg × 2 oral, from 2 days after TNBS) was 3.5 ± 0.4, the Colonic ulceration score (TNBS induced IBD model [5]; 25 mg/kg × 2 oral, from 2 days after TNBS) was 3.3 ± 0.3 and the Weight gain (TNBS induced IBD model [5]; Compound A treated group (2 to 50 mg/kg/day oral)) was “significant inhibition of weight gain was not observed”. The Colonic ulceration score (TNBS induced IBD model [5]; Table 6 (title: colonic wet weight of large intestine, 10 cm), 25 mg/kg × 2 oral) was 1.20 ± 0.04, the “Effect on the feces score on the day before dissection (FIG. 3)” value ([2]; 2 mg/kg/day from 4th day) was “significant (P<0.005) ameliorating effect” and the “Effect on the increase of rectum weight (FIG. 2)” value ([2]; 2 mg/kg/day from 4th day, vs solvent treated group) was “significant (P<0.005, P<0.05) ameliorating effect”. For the same compound, the “Effect on macro observation score (FIG. 4)” value ([2]; 2 mg/kg, P=0.0509 category test, P=0.1161 segmentation test) was “inhibitory tendency”, the “Effect on the feces score on the day before dissection (FIG. 3)” value ([2]; 20 mg/kg/day from 4th day) was “significant (P<0.005) ameliorating effect” and the “Effect on the increase of rectum weight (FIG. 2)” value [2, 7] was “significant (P<0.005, P<0.05) ameliorating effect”. The “Effect on the shortening of large intestine (FIG. 1)” value [2, 7] was “significant (P<0.01) ameliorating effect”, the “Effect on macro observation score (FIG. 4)” value ([2]; 20 mg/kg/day, P=0.0006 category test, P=0.0003 segmentation test) was “significant ameliorating effect” and the “Side effects such as inhibition of weight gain” value [2] was “not observed”. For the same compound, the Colonic ulceration score (TNBS induced IBD model [6]) was 3.5 ± 0.5.
For COc1cc2[nH]c(=O)c3nn[nH]c3c(=O)c2cc1OC [Compound B, 7,8-dimethoxy-4(5H),10-dioxo-1H-1,2,3-triazolo[4,5-c][1]benzoazepine], the Detection in plasma [3] was “detected as the main metabolite”, the Detection in bile [3] was “detected as the main metabolite” and the Detection in urine [3] was “detected as the main metabolite”. For the same compound, the “Production of IL-4” value (splenocytes; 10 μM, culture for 6 hours) was “did not inhibit”, the “Production of IFNγ” value (splenocytes; 10 μM) was “did not inhibit” and the “Production of IL-2” value (splenocytes; 10 μM) was “did not inhibit”. For the same compound, the “Production of IL-5” value (splenocytes; 10 μM) was “did not inhibit”, the “Effect on macro observation score” value ([2]; 20 mg/kg/day oral) was “an inhibitory effect was recognized” and the “Feces score on the day before dissection” value ([2]; 20 mg/kg/day oral, n=12, solvent treated group 1.9±0.25, P<0.05) was 0.9±0.24. For the same compound, the “Side effects such as inhibition of weight gain” value [2] was “not observed”.
In the case of C[C@]12C=CC(=O)C=C1CC[C@@H]1[C@@H]2[C@@H](O)C[C@@]2(C)[C@H]1CC[C@]2(O)C(=O)CO [Prednisolone, prednisolone, reference compound], the “Weight gain (side effect)” value (DSS induced IBD model; 1 mg/kg/day oral) is reported as “significant weight gain inhibitory effect”, the inhibition at 1 mg/kg/day (DSS induced IBD model; Table 2 (ulcer area reduction effect), 1 mg/kg/day oral) is reported as 26.1% and the inhibition at 1 mg/kg/day (DSS induced IBD model; Table 3 (feces score), 1 mg/kg/day oral) is reported as 40.7%. The ulcer area (DSS induced IBD model; 1 mg/kg/day oral) was 337.5 ± 34.1, the Feces score (DSS induced IBD model; 1 mg/kg/day oral) was 2.00 ± 0.42 and the “Production of IFNγ” value (splenocytes; concentration not given) was “almost completely inhibited”. For the same compound, the “Production of IL-2” value (splenocytes; concentration not given) was “almost completely inhibited”, the “Production of IL-5” value (splenocytes; concentration not given) was “almost completely inhibited” and the Colonic ulceration score (TNBS induced IBD model [5]; 3 mg/kg × 2 oral, from 2 days after TNBS) was 3.0 ± 0.5^b. The Weight gain (TNBS induced IBD model [5]; 6 mg/kg/day oral) was “remarkable inhibition of (P<0.01) weight gain” and the Colonic ulceration score (TNBS induced IBD model [5]; Table 6 (title: colonic wet weight of large intestine, 10 cm), 3 mg/kg × 2 oral) was 1.05 ± 0.09^bb.
O=C(O)c1cc(/N=N/c2ccc(S(=O)(=O)Nc3ccccn3)cc2)ccc1O [Sulfasalazine, sulfasalazine] gave an inhibition at 100 mg/kg/day (DSS induced IBD model; Table 2 (ulcer area reduction effect), 100 mg/kg/day oral) of 8.2%, an inhibition at 100 mg/kg/day (DSS induced IBD model; Table 3 (feces score), 100 mg/kg/day oral) of 22.2% and a Feces score (DSS induced IBD model; 100 mg/kg/day oral) of 2.63 ± 0.50.

From patent publication US7858612B2, “Therapeutic agent for inflammatory bowel diseases” (Meiji Seika Kaisha, Ltd., priority 2007, dated 2010)
